Assay results published in patent publication US20230087196A1, “Application of circIKBKB Inhibitors and Test Reagents thereof in Diagnosis, Treatment and Prognosis Kits for Breast Cancer Bone Metastasis” (SUN YAT-SEN UNIVERSITY CANCER CENTER, priority 2021, published 2023).

Key:
SCP2 cells [1] = experiment: In vivo established bone metastasis model: SCP2 cells into left ventricle of nude mice, eIF4A3-IN-2 started when bone-metastatic tumors formed; settings: 1 mg/kg intragastric, started when BLI signal reached 2×10^7 p/sec/cm^2/sr, after 5 weeks treatment, vs vehicle
Description: Experiment 3: SCP2 cells were injected into the left ventricle of nude mice (1*10^6 cells/mouse). eIF4A3-IN-2 (1 mg/kg) treatment via intragastric administration was started when bioluminescence signal of bone-metastatic tumors reached 2×10^7 p/sec/cm^2/sr. The mice were sacrificed after 60 days, and the hindlimbs of the mice were taken for μCT analysis, H&E and TRAP staining.

SCP2 cells [2] = experiment: In vivo bone metastasis prevention model: SCP2 cells into left ventricle of nude mice, eIF4A3-IN-2 intragastric from the second day; settings: 1 mg/kg intragastric from the second day after SCP2 injection, vs vehicle
Description: Experiment 2: SCP2 cells were injected into the left ventricle of nude mice (1*10^6 cells/mouse), and eIF4A3-IN-2 (1 mg/kg) was administered to the mice by intragastric administration from the second day. The mice were sacrificed after 60 days, and hindlimbs of the mice were taken for μCT analysis, H&E and TRAP staining.

SMILES: O=C(c1cnn2cc(Br)ccc12)N1CCN(C(=O)c2ccc(Br)cc2)[C@@H](c2ccc(Cl)cc2)C1 [eIF4A3-IN-2]
- bone-metastatic tumor burden (SCP2 cells [1]): decreased
- onsets of bone metastases (SCP2 cells [1]): dramatically reduced
- number of TRAP+-osteoclasts in bone surface area (SCP2 cells [2]): less
- onsets of bone-metastases and bone-metastasis burden (SCP2 cells [2]): significantly delayed
- osteolytic areas (SCP2 cells [2]): less
